In patent US12721832B2, “Anti-senescence plant polyphenol drug downregulating senescence-related secretory phenotype and use thereof” (BYHEALTH CO., LTD., priority 2021, dated 2026):

Tests used:
[1] = tested on: senescent PSC27 cells; assay: SA-β-Gal staining of PSC27 under increasing PCC1 concentration; format: cell-based, human
Protocol: Senescence-associated (3-galactosidase (SA-β-Gal) staining was performed following a previously reported procedure (Debacq-Chainiaux et al., 2009). Briefly, cells in culture dishes were washed with PBS and fixed at room temperature. Cells were fixed in 2% formaldehyde and 0.2% glutaraldehyde for 3 minutes. SA-β-Gal was used for staining with freshly prepared staining solution overnight at 37° C. Images were taken on the next day and the percentage of positive cells per unit area was calculated.

[2] = tested on: SASP factors; assay: qRT-PCR of SASP molecules in BLEO-induced senescent PSC27 cells at different PCC1 concentrations; format: cell-based, human
Protocol: All data are normalized results compared to the CTRL group. *, P<0.05; **, P<0.01.
Total RNA of cells in the growth phase or stasis phase was extracted with Trizol reagent, 1 mL Trizol was added to each T25 culture flask, the cell layer was scraped off with a cell scraper, transferred into a centrifuge tube, and mixed well until not viscous. […] After the RNA was quantified by a spectrophotometer, a small amount of total RNA was taken for 1% agarose electrophoresis to check the status and quality of the RNA. […]
Sample was loaded according to the above standard, and the reaction conditions were: 95° C. pre-denaturation for 15 seconds, then 95° C. for 5 seconds, 60° C. for 31 seconds, 40 cycles; melting curve conditions were 95° C. for 15 seconds, 60° C. for 30 seconds, 95° C. for 15 seconds. […] The expression of (3-actin was used as an internal reference. After the reaction was completed, the amplification of each gene was checked by software analysis, the corresponding threshold cycle number was derived, and the relative expression of each gene was calculated using the 2-AACt method. The peak and waveform of the melting curve was analyzed to determine whether the obtained amplification product was a specific single target fragment. […]

[3] = tested on: PC3/PSC27 xenograft tumors; assay: Disease-free survival of tumor-bearing NOD/SCID mice; format: in vivo; details: PCC1 alone
Source text: When the tumor volume in the vehicle, MIT, PCC1 and MIT/PCC1 groups exceeds 2000 mm^3, it is considered that severe disease has occurred, and the mice need to be killed in time and the tumor bearing status should be detected. ^, P>0.05; **, P<0.01.
We next compared the survival of animals in different drug-treated groups, primarily in a time-prolonged manner to assess the consequences of tumor progression. In this preclinical cohort, animals were monitored for prostate tumor growth, and severe disease was judged to have occurred once the […] tumor burden in mice was prominent (size ≥2000 mm^3), which was a method used for assessing progression of tumors and other diseases in certain conditions.

Oc1cc(O)c2c(c1)O[C@H](c1ccc(O)c(O)c1)[C@H](O)[C@H]2c1c(O)cc(O)c2c1O[C@H](c1ccc(O)c(O)c1)[C@H](O)[C@H]2c1c(O)cc(O)c2c1O[C@H](c1ccc(O)c(O)c1)[C@H](O)C2 [PCC1, procyanidin C1]
senescent cells remaining ([1]; 150 μM PCC1, 80% staining positive without drug): 20%
killing effect at 200 μM versus 150 μM ([1]; 200 μM PCC1): not further enhanced
concentration at which killing effect reached a threshold ([1]; senescent PSC27): 150 µM
concentration from which senescent cells are eliminated (SA-β-Gal staining) ([1]; senescent PSC27, 0-200 μM): 50 µM
SASP inhibition at lower or higher concentrations ([2]; compared with 10 μM): less effective
working concentration inhibiting SASP development with the greatest efficiency ([2]; concentration gradient, senescent PSC27): 10 µM
survival benefit of single agent [3]: only a marginal extension of survival
